How the values were obtained:
Test in all cases: relative viability (nuclei count vs DMSO), 5 days (fraction); higher = more cells survive
BAY61-3606 + Bortezomib = compound: COC1=C(C=C(C=C1)C2=CC3=NC=CN3C(=N2)NC4=C(C=CC=N4)C(=O)N)OC [BAY61-3606] + CC(C)C[C@H](NC(=O)[C@H](Cc1ccccc1)NC(=O)c1cnccn1)B(O)O [Bortezomib] (partner 0.002 µM)
Procedure, shortened: (§1)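 Dosing by pin tool came one day after lung cancer cell lines were seeded in 1536-well plates, using either one drug or a fixed anchor-drug dose plus five library-drug doses (not always all listed) in √10 steps. After 5 days, nuclei were counted on 4× images. Relative viability is treated-well nuclei count divided by vehicle-well nuclei count, and values are medians of duplicate plates.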

BAY61-3606 + Olaparib = compound: COC1=C(C=C(C=C1)C2=CC3=NC=CN3C(=N2)NC4=C(C=CC=N4)C(=O)N)OC [BAY61-3606] + O=C(c1cc(Cc2n[nH]c(=O)c3ccccc23)ccc1F)N1CCN(C(=O)C2CC2)CC1 [Olaparib] (partner 8 µM)
Procedure, shortened: as §1

BAY61-3606 + Lapatinib = compound: COC1=C(C=C(C=C1)C2=CC3=NC=CN3C(=N2)NC4=C(C=CC=N4)C(=O)N)OC [BAY61-3606] + CS(=O)(=O)CCNCc1ccc(-c2ccc3ncnc(Nc4ccc(OCc5cccc(F)c5)c(Cl)c4)c3c2)o1 [Lapatinib] (partner 2 µM)
Procedure, shortened: as §1

BAY61-3606 + Tozasertib = compound: COC1=C(C=C(C=C1)C2=CC3=NC=CN3C(=N2)NC4=C(C=CC=N4)C(=O)N)OC [BAY61-3606] + Cc1cc(Nc2cc(N3CCN(C)CC3)nc(Sc3ccc(NC(=O)C4CC4)cc3)n2)n[nH]1 [Tozasertib] (partner 0.1 µM)
Procedure, shortened: as §1

Cell Line	relative viability (BAY61-3606 + Bortezomib; first compound 0.02 µM)	relative viability (BAY61-3606 + Bortezomib; first compound 0.06325 µM)	relative viability (BAY61-3606 + Bortezomib; first compound 0.2 µM)	relative viability (BAY61-3606 + Bortezomib; first compound 0.6325 µM)	relative viability (BAY61-3606 + Bortezomib; first compound 2 µM)	relative viability (BAY61-3606 + Olaparib; first compound 0.02 µM)	relative viability (BAY61-3606 + Olaparib; first compound 0.06325 µM)	relative viability (BAY61-3606 + Olaparib; first compound 0.2 µM)	relative viability (BAY61-3606 + Olaparib; first compound 0.6325 µM)	relative viability (BAY61-3606 + Olaparib; first compound 2 µM)	relative viability (BAY61-3606 + Lapatinib; first compound 0.02 µM)	relative viability (BAY61-3606 + Lapatinib; first compound 0.06325 µM)	relative viability (BAY61-3606 + Lapatinib; first compound 0.2 µM)	relative viability (BAY61-3606 + Lapatinib; first compound 0.6325 µM)	relative viability (BAY61-3606 + Lapatinib; first compound 2 µM)	relative viability (BAY61-3606 + Tozasertib; first compound 0.02 µM)	relative viability (BAY61-3606 + Tozasertib; first compound 0.06325 µM)	relative viability (BAY61-3606 + Tozasertib; first compound 0.2 µM)	relative viability (BAY61-3606 + Tozasertib; first compound 0.6325 µM)	relative viability (BAY61-3606 + Tozasertib; first compound 2 µM)
NCI-H2085	1.11	1.07	1.06	1.13	0.953	0.863	0.868	0.726	0.843	0.698	0.865	0.784	0.777	0.977	0.71	0.809	0.531	0.546	0.481	0.345
NCI-H2405	0.992	0.973	0.961	0.964	0.942	0.941	0.89	0.845	0.907	0.695	1.26	0.886	1.05	1.14	1.07	0.698	0.426	0.479	0.491	0.287
NCI-H661	0.896	0.713	0.767	0.724	0.556	0.737	0.75	0.679	0.762	0.691	0.575	0.534	0.415	0.541	0.371	0.357	0.358	0.37	0.378	0.362
NCI-H650	0.917	0.766	0.618	0.681	0.72	0.365	0.371	0.382	0.395	0.32	1.16	0.948	0.783	0.884	0.801	0.795	0.263	0.648	0.455	0.226
EKVX	1.12	1.09	1.03	1.16	1.06	0.99	0.999	0.798	0.91	0.782	0.365	0.184	0.214	0.198	0.193	0.366	0.299	0.383	0.436	0.16
EPLC-272H	1.01	0.931	0.915	0.958	0.951	0.962	0.722	0.706	0.709	0.323	1.18	0.809	0.876	0.878	0.808	0.262	0.247	0.362	0.242	0.157
NCI-H1650	0.24	0.201	0.183	0.356	0.201	0.86	0.924	0.768	0.806	0.674	0.862	0.671	0.8	0.849	0.517	0.362	0.265	0.264	0.329	0.204
NCI-H2228	1.32	1.17	0.916	1.22	0.567	0.879	0.73	0.889	0.693	0.412	1.34	1.01	1.27	1	0.894	0.274	0.173	0.147	0.16	0.159
NCI-H2023	1.1	1.08	1.09	1.24	0.735	0.515	0.623	0.481	0.496	0.257	0.917	0.805	0.869	1.45	0.591	0.359	0.225	0.232	0.197	0.118
NCI-H322M	1.27	1.27	1.19	1.1	1.14	0.779	0.822	0.75	0.749	0.724	0.622	0.612	0.596	0.599	0.553	0.498	0.477	0.48	0.421	0.412
HCC-827	1.03	1.07	1.01	1.02	1.1	0.648	0.737	0.67	0.606	0.624	0.2	0.2	0.206	0.226	0.217	0.412	0.415	0.373	0.387	0.38
LU99A	1.14	1.21	1.18	1.12	0.709	0.261	0.253	0.241	0.246	0.243	0.97	1.02	0.909	0.976	0.486	0.279	0.216	0.217	0.239	0.177
LC-2-ad	1.02	1.1	0.979	1.08	0.907	0.703	0.701	0.723	0.717	0.578	1.02	0.97	0.951	0.898	0.979	0.404	0.308	0.387	0.44	0.345
NCI-H460	1.12	1.12	1.05	0.92	0.548	0.501	0.464	0.393	0.444	0.457	1.05	1.19	0.938	1.01	0.189	0.447	0.0447	0.139	0.0713	0.0263
HOP-62	0.869		1.16	0.443	0.723	0.476	0.569	0.279	0.505	0.376	0.918		1.05	1.06	1.07	0.323	0.224	0.297	0.286	0.144
NCI-H1993	1.08	1.02	0.976	1.12	0.848	1.11	1.04	0.984	1.13	0.82	0.733	0.846	0.808	0.776	0.746	0.521	0.582	0.621	0.59	0.577
